Where a name gives a salt, the structure may show the parent alone.

Test [1] has as its target T1, human FLT3 (Homo sapiens, UniProt P36888).
T1 construct: a construct expressing the human FLT3 (564-993) with an amino terminal GST tag; host or cells: Sf9 insect cells (baculovirus)
T1 sequence (P36888 564-993): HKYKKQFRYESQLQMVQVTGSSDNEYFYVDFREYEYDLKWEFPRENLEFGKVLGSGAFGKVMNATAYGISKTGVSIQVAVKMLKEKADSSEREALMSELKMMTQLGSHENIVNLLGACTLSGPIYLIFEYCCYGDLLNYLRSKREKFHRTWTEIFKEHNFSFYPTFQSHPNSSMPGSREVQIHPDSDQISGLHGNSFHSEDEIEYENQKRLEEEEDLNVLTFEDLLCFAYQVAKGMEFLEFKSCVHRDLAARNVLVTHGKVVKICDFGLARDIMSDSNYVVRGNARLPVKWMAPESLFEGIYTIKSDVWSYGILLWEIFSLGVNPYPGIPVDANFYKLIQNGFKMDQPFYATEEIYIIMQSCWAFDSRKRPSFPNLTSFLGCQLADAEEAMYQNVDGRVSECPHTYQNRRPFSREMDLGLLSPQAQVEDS
The test can be described thus: FLT3 kinase assay (DELFIA enzyme inhibition). It is filed as biochemical. The essentials:
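GST-tagged human FLT3 (564-993), expressed in sf9 cells, phosphorylated a biotinylated Gastrin Precursor (Tyr 87)-derived peptide for 30 min at room temperature before EDTA stop. The captured peptide was detected by Eu-labelled anti-phosphotyrosine DELFIA time-resolved fluorescence. IC50 was derived from % inhibition curves.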

For test [2], the system named is HCT116 cells. The experiment in a line: Anti-proliferative activity, Alamar Blue assay, HCT116. It is filed as cell-based. Particulars: Homo sapiens, HCT-116, 72 hours, read-out: cell proliferation IC50. As for the experimental part: The anti-proliferative activities of compounds of the invention are determined by measuring the ability of the compounds to inhibition of cell growth in a number of cell lines. Inhibition of cell growth is measured using the Alamar Blue assay (Nociari et al., Journal of Immunological Methods (1998) 213, 157-167). The method is based on the ability of viable cells to reduce resazurin to its fluorescent product resorufin. For each proliferation assay cells are plated onto 96 well plates and allowed to recover for 16 hours prior to the addition of inhibitor compounds for a further 72 hours. At the end of the incubation period 10% (v/v) Alamar Blue is added and incubated for a further 6 hours prior to determination of fluorescent product at Excitation 535 nm and Emission 590 nm. In the case of the non-proliferating cell assay cells are maintained at confluence for 96 hour prior to the addition of inhibitor compounds for a further 72 hours. The number of viable cells is determined by Alamar Blue assay as before. All cell lines are obtained from ECACC (European Collection of cell Cultures).

The target in test [3] is T2, human Aurora A (Homo sapiens, UniProt O14965).
T2 construct: Histidine tag (N); host or cells: Sf9 insect cells (baculovirus)
T2 sequence (O14965 1-403): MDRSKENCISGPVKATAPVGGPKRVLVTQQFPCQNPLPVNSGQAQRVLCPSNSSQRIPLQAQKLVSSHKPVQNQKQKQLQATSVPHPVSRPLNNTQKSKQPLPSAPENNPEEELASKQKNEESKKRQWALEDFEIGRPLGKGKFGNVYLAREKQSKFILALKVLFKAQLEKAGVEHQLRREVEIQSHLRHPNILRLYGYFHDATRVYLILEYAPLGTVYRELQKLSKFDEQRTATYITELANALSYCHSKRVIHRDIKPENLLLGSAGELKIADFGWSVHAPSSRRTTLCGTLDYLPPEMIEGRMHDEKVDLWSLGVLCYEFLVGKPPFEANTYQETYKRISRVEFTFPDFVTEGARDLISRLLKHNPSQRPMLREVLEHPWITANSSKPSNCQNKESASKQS
The test can be described thus: Aurora A kinase assay (DELFIA enzyme inhibition). The conditions noted are these: read-out: Aurora A IC50. The test is classed as biochemical. The method, boiled down: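 DELFIA read-out (time-resolved Eu fluorescence, 620 nm emission) after Neutravidin capture of biotinylated peptide substrate and antibody detection. Reaction: Ni-agarose-purified Aurora A, 30 min at room temperature, stopped with 100 mM EDTA.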

Test [4] addresses T3, human FLT4 (Homo sapiens, UniProt P35916).
T3 construct: a construct expressing the human FLT4 (789-1207) with an amino terminal GST tag; host or cells: Sf9 insect cells (baculovirus)
The experiment in a line: FLT4 kinase assay (DELFIA enzyme inhibition). The test is classed as biochemical. The conditions noted are these: read-out: FLT4 IC50. The method, boiled down:
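Read-out is DELFIA: biotinylated MET Tyr1253-derived peptide captured on Neutravidin, phosphotyrosine detected by Eu-antibody time-resolved fluorescence. Enzyme is Sf9-expressed GST-FLT4 (789-1207), reacting 30 min at room temperature before EDTA stop. IC50 derived from plotted % inhibition.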

T3 sequence (P35916 789-1207): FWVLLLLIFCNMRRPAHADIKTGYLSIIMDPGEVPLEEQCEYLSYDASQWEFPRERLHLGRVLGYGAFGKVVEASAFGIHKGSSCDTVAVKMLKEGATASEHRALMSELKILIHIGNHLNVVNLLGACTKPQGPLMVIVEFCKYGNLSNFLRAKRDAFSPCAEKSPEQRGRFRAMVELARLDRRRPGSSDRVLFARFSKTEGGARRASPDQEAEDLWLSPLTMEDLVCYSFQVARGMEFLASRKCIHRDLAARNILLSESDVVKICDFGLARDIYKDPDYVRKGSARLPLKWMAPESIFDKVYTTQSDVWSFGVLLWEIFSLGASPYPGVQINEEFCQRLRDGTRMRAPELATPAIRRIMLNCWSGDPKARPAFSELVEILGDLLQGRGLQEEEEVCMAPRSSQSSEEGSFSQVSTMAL

Regarding `NC(=O)c1nc(-c2c(F)cccc2F)oc1-c1ccc(OCCN2CCOCC2)cc1` [Example F-13, 2-(2,6-difluorophenyl)-5-(4-(2-morpholinoethoxy)phenyl)oxazole-4-carboxamide], the IC50 in test [1], in test [2], in test [3] and in test [4] was less than 10 µM throughout.
`NC(=O)c1nc(-c2c(F)cccc2F)oc1Nc1ccc(OCCN2CCOCC2)cc1` [Example Q-8, 2-(2,6-difluorophenyl)-5-(4-(2-morpholinoethoxy)phenylamino)oxazole-4-carboxamide]: the IC50 in test [1], in test [2], in test [3] and in test [4] was less than 10 µM each time.
With `CC(=O)N1CCN(c2ccc(Nc3oc(-c4c(F)cccc4F)nc3C(N)=O)cc2)CC1` [Example Q-9, 5-(4-(4-acetylpiperazin-1-yl)phenylamino)-2-(2,6-difluorophenyl)oxazole-4-carboxamide], the IC50 in test [1], in test [2], in test [3] and in test [4] was less than 10 µM in each case.
With `COc1ccccc1Nc1nc(C(N)=O)c(-c2ccc(N3CCNCC3)cc2)o1` [Example R-11, 2-(2-methoxyphenylamino)-5-(4-(piperazin-1-yl)phenyl)oxazole-4-carboxamide], the IC50 in test [1], in test [2], in test [3] and in test [4] was less than 10 µM in each case.
For `CS(=O)(=O)c1ccc(Nc2oc(-c3cccc4[nH]ncc34)nc2C(N)=O)cc1` [Example Q-58, 2-(1H-indazol-4-yl)-5-(4-(methylsulfonyl)phenylamino)oxazole-4-carboxamide], the IC50 in test [1], in test [3] and in test [4] was less than 10 µM each time.
Consider `NC(=O)c1nc(-c2c(F)cccc2N2CCC(O)CC2)oc1-c1ccc(OCCN2CCC(O)CC2)cc1` [Example S-3, 2-(2-fluoro-6-(4-hydroxypiperidin-1-yl)phenyl)-5-(4-(2-(4-hydroxypiperidin-1-yl)ethoxy)phenyl)oxazole-4-carboxamide], for which the IC50 in test [1], in test [3] and in test [4] was less than 100 µM in each case.
Regarding `NC(=O)c1nc(Nc2ccc3[nH]ncc3c2)oc1-c1ccc(N2CCNCC2)cc1` [Example R-15, 2-(1H-indazol-5-ylamino)-5-(4-(piperazin-1-yl)phenyl)oxazole-4-carboxamide], the IC50 in test [1], in test [3] and in test [4] was less than 10 µM in each case.
Turning to `NC(=O)c1nc(-c2c[nH]c3ccccc23)oc1-c1cccs1` [Example E-4, 2-(1H-indol-3-yl)-5-(thiophen-2-yl)oxazole-4-carboxamide], the IC50 in test [1] is less than 100 µM; in test [3], less than 100 µM; in test [4] it was less than 10 µM.
On to `NC(=O)c1nc(-c2c(F)cccc2F)oc1Nc1cccc(N2CCNCC2)c1` [Example Q-12, 2-(2,6-difluorophenyl)-5-(3-(piperazin-1-yl)phenylamino)oxazole-4-carboxamide formate salt], for which the IC50 in test [1], in test [3] and in test [4] was less than 10 µM throughout.
For the compound `CN1CCN(Cc2ccc(-c3oc(-c4c(F)cccc4F)nc3C(N)=O)cc2)CC1` [Example F-10, 2-(2,6-difluorophenyl)-5-(4-((4-methylpiperazin-1-yl)methyl)phenyl)oxazole-4-carboxamide], the IC50 in test [1] was less than 100 µM; in test [3], less than 10 µM; in test [4], less than 10 µM.
With `CC(=O)N1CCN(Cc2ccc(-c3oc(-c4c(F)cccc4F)nc3C(N)=O)cc2)CC1` [Example F-11, 5-(4-((4-acetylpiperazin-1-yl)methyl)phenyl)-2-(2,6-difluorophenyl)oxazole-4-carboxamide], the IC50 in test [1] was less than 100 µM; in test [3] it was less than 10 µM; in test [4], less than 10 µM.
